In general, MIC refers to the smallest concentration in the dilution series that meets the test's criterion for growth inhibition. The low end stands for a more susceptible organism, the high end for a less susceptible organism.

Our source for the Activity and MIC values is ChEMBL document CHEMBL4033728, “Synthesis and structure-activity relationship study of novel quinazolinone-based inhibitors of MurA” (Bioorg Med Chem Lett, 2017).

Assay [1] has as its system Escherichia coli. The assay is described as follows: Inhibition of Escherichia coli MurA assessed as residual enzyme activity at 100 uM using UDP-GlcNAc and PEP as substrate incubated for 15 mins by Malachite green method.
In assay [2] the test system is Escherichia coli. Kind of assay: Antibacterial activity against Escherichia coli ATCC 25922 incubated for 18 to 24 hrs by broth microdilution method. It counts as functional.
For the next assay, the system named is Staphylococcus aureus. The assay is described as follows: Antibacterial activity against Staphylococcus aureus ATCC 29213 incubated for 18 to 24 hrs by broth microdilution method. It counts as functional. A general note: In broth dilution the organism is exposed to a series of concentrations in liquid medium.

Structures are written as SMILES. Values after ≈ are worked out from the molar mass of the structure shown. A value given as a limit tells only on which side of the number the result lay.

Turning to `O=Cc1ccc(-c2nc3ccccc3c(=O)[nH]2)cc1`, the Activity with Escherichia coli [1] was 58%. Also, the MIC in the assay with Escherichia coli [2] and against Staphylococcus aureus was over 128 µg/mL throughout.

Turning to `O=C(O)c1ccc(COc2cccc(-c3nc4ccccc4c(=O)[nH]3)c2)cc1`, the Activity with Escherichia coli [1] amounted to 85%. Besides, the MIC in the assay with Escherichia coli [2] and against Staphylococcus aureus was over 128 µg/mL throughout.

With `O=c1[nH]c(-c2ccc([N+](=O)[O-])cc2)nc2ccccc12`, the Activity with Escherichia coli [1] is 99%. The MIC in the assay on Escherichia coli [2] and with Staphylococcus aureus was over 128 µg/mL in each case.

Consider `O=c1[nH]c(-c2cc(F)cc3c2OCOC3)nc2ccccc12`, for which the Activity with Escherichia coli [1] came out at 99%. Besides, the minimal inhibitory concentration (MIC) in the assay on Escherichia coli [2] and in the assay with Staphylococcus aureus was over 128 µg/mL in each case.

For `O=c1[nH]c(-c2ccc(Cn3cncn3)nc2)nc2ccccc12`, the Activity in the assay with Escherichia coli [1] was determined as 80%. Also, the MIC against Escherichia coli [2] and against Staphylococcus aureus was over 128 µg/mL in each case.

`Oc1nc(-c2cccs2)nc2ccccc12`: in the assay on Escherichia coli [1], the Activity stood at 83%. The MIC with Escherichia coli [2] and in the assay with Staphylococcus aureus was over 128 µg/mL in each case.

`O=C(O)Cn1c(-c2ccoc2)nc2ccccc2c1=O`: the Activity in the assay on Escherichia coli [1] came to 74%. In addition, the minimal inhibitory concentration (MIC) with Escherichia coli [2] and against Staphylococcus aureus was over 128 µg/mL throughout.

`Oc1nc(-c2ccc(F)cc2)nc2ccccc12`: the Activity with Escherichia coli [1] amounted to 89%. The MIC against Escherichia coli [2] and against Staphylococcus aureus was over 128 µg/mL in each case.

For the compound `O=c1[nH]c(-c2ccc(O)cc2)nc2ccsc12`, the Activity with Escherichia coli [1] was found to be 80%. The MIC in the assay on Escherichia coli [2] and in the assay on Staphylococcus aureus was over 128 µg/mL in each case.

Regarding `O=c1[nH]c(-c2ccc(F)c(F)c2)nc2ccccc12`, the Activity in the assay on Escherichia coli [1] came to 67%. Further, the MIC against Escherichia coli [2] and in the assay on Staphylococcus aureus was over 128 µg/mL each time.

As for `N#Cc1cccc(-c2nc3ccccc3c(=O)[nH]2)c1`, the Activity with Escherichia coli [1] amounted to 62%. For the same compound, the MIC with Escherichia coli [2] and with Staphylococcus aureus was over 128 µg/mL in each case.

In the case of `Cc1ccc(COc2ccc(-c3nc4ccccc4c(=O)[nH]3)cc2)cc1`, the Activity in the assay on Escherichia coli [1] was 97%. The MIC against Escherichia coli [2] and with Staphylococcus aureus was over 128 µg/mL in each case.

Regarding `O=c1[nH]c(-c2cccc(O)c2)nc2ccccc12`, the Activity in the assay with Escherichia coli [1] came out at 80%. In addition, the MIC in the assay with Escherichia coli [2] and in the assay with Staphylococcus aureus was over 128 µg/mL in each case.

Consider `COC(=O)c1ccc(COc2ccc(-c3nc4ccccc4c(=O)[nH]3)cc2)cc1`, for which the Activity in the assay on Escherichia coli [1] is 100%. For the same compound, the MIC in the assay with Escherichia coli [2] and with Staphylococcus aureus was over 128 µg/mL throughout.

With `O=c1[nH]c(-c2ccnc(N3CCOCC3)c2)nc2ccccc12`, the Activity in the assay with Escherichia coli [1] turned out to be 70%. The MIC against Escherichia coli [2] and in the assay with Staphylococcus aureus was over 128 µg/mL in each case.

With `Oc1nc(-c2ccncc2)nc2ccccc12`, the Activity with Escherichia coli [1] worked out at 82%. For the same compound, the MIC against Escherichia coli [2] and in the assay on Staphylococcus aureus was over 128 µg/mL in each case.

With `COc1ccc(-c2nc(O)c3ccccc3n2)cc1`, the Activity in the assay with Escherichia coli [1] was 71%. Further, the MIC against Escherichia coli [2] and against Staphylococcus aureus was over 128 µg/mL in each case.

In the case of `O=c1[nH]c(-c2cn3ccsc3n2)nc2ccccc12`, the Activity in the assay with Escherichia coli [1] is 82%. Further, the results for the MIC with Escherichia coli [2] and against Staphylococcus aureus were over 128 µg/mL and 128 µg/mL (≈ 477 µM), respectively.

As to `N#Cc1ccc(-c2nc3ccccc3c(=O)[nH]2)cc1`, the Activity in the assay on Escherichia coli [1] is 54%. Further, the MIC against Escherichia coli [2] and against Staphylococcus aureus was over 128 µg/mL each time.

On to `O=c1[nH]c(-c2cccc(Cl)c2)nc2ccccc12`, for which the Activity in the assay on Escherichia coli [1] worked out at 68%. Besides, the MIC against Escherichia coli [2] and against Staphylococcus aureus was over 128 µg/mL in each case.

Turning to `O=c1[nH]c(-c2ccc(CO)o2)nc2ccccc12`, the Activity in the assay on Escherichia coli [1] is 99%. Further, the MIC in the assay on Escherichia coli [2] and against Staphylococcus aureus was over 128 µg/mL throughout.

On to `O=c1[nH]c(-c2cccc(Br)n2)nc2ccccc12`, for which the Activity in the assay on Escherichia coli [1] came to 91%. The MIC against Escherichia coli [2] and against Staphylococcus aureus was over 128 µg/mL throughout.

For `COc1ccc2occ(-c3nc4ccccc4c(=O)[nH]3)c(=O)c2c1`, the Activity with Escherichia coli [1] came to 100%. Also, the minimum inhibitory concentration (MIC) with Escherichia coli [2] and in the assay with Staphylococcus aureus was over 128 µg/mL in each case.

Turning to `CC(C)n1c(-c2ccco2)nc2ccccc2c1=O`, the Activity in the assay with Escherichia coli [1] was 93%. Also, the values for the MIC with Escherichia coli [2] and in the assay with Staphylococcus aureus were over 128 µg/mL and 32 µg/mL (≈ 126 µM), respectively.

For `O=c1[nH]c(-c2ccc(-c3ccncc3)cc2)nc2ccccc12`, in the assay with Escherichia coli [1], the Activity was found to be 100%. Further, the MIC in the assay with Escherichia coli [2] and with Staphylococcus aureus was over 128 µg/mL in each case.

With `O=c1[nH]c(-c2ccc3cccc(O)c3n2)nc2ccccc12`, the Activity with Escherichia coli [1] came to 84%. The MIC in the assay with Escherichia coli [2] and in the assay on Staphylococcus aureus was over 128 µg/mL each time.

In the case of `O=c1[nH]c(-c2ccc(OCc3cccc(Cl)c3)cc2)nc2ccccc12`, in the assay on Escherichia coli [1], the Activity came to 95%. Further, the MIC in the assay on Escherichia coli [2] and in the assay on Staphylococcus aureus was over 128 µg/mL throughout.

As to `O=c1[nH]c(-c2ccc3c(c2)OCO3)nc2ccccc12`, the Activity in the assay on Escherichia coli [1] stood at 83%. The MIC with Escherichia coli [2] and against Staphylococcus aureus was over 128 µg/mL in each case.

On to `CN(C)c1ccc(-c2nc(O)c3ccccc3n2)cc1`, for which the Activity in the assay on Escherichia coli [1] amounted to 97%. Further, the MIC against Escherichia coli [2] and against Staphylococcus aureus was over 128 µg/mL each time.

As to `O=c1[nH]c(-c2ccc(N3CCOCC3)nc2)nc2ccccc12`, the Activity with Escherichia coli [1] came to 64%. Also, the MIC in the assay with Escherichia coli [2] and against Staphylococcus aureus was over 128 µg/mL throughout.

On to `O=c1c2ccccc2nc(-c2ccco2)n1Cc1ccccc1`, for which the Activity in the assay with Escherichia coli [1] turned out to be 100%. Moreover, the MIC with Escherichia coli [2] and in the assay on Staphylococcus aureus was over 128 µg/mL throughout.

On to `O=c1[nH]c(-c2ccoc2)nc2ccccc12`, for which, in the assay with Escherichia coli [1], the Activity came to 91%. The MIC against Escherichia coli [2] and in the assay with Staphylococcus aureus was over 128 µg/mL throughout.

Take `O=c1[nH]c(-c2c[nH]cn2)nc2ccccc12`: the Activity with Escherichia coli [1] is 88%. The MIC with Escherichia coli [2] and against Staphylococcus aureus was over 128 µg/mL in each case.

As to `O=c1[nH]c(-c2cccc(OCc3cccc(Cl)c3)c2)nc2ccccc12`, the Activity in the assay with Escherichia coli [1] came to 98%. Besides, the MIC against Escherichia coli [2] and in the assay on Staphylococcus aureus was over 128 µg/mL throughout.

Regarding `O=c1[nH]c(-c2ccc3ccccc3n2)nc2ccccc12`, in the assay with Escherichia coli [1], the Activity turned out to be 100%. Also, the MIC in the assay with Escherichia coli [2] and against Staphylococcus aureus was over 128 µg/mL each time.

With `O=C(O)c1ccc(-c2nc3ccccc3c(=O)[nH]2)cc1`, in the assay with Escherichia coli [1], the Activity was 86%. In addition, the MIC with Escherichia coli [2] and in the assay on Staphylococcus aureus was over 128 µg/mL in each case.

With `O=c1[nH]c(-c2ccc(O)cc2)nc2ccccc12`, the Activity in the assay on Escherichia coli [1] was 91%. Further, the MIC against Escherichia coli [2] and in the assay with Staphylococcus aureus was over 128 µg/mL each time.

On to `COC(=O)c1cccc(COc2ccc(-c3nc4ccccc4c(=O)[nH]3)cc2)c1`, for which the Activity in the assay with Escherichia coli [1] came to 100%. The minimum inhibitory concentration (MIC) in the assay with Escherichia coli [2] and against Staphylococcus aureus was over 128 µg/mL each time.

For the compound `O=C(O)c1ccc(COc2ccc(-c3nc4ccccc4c(=O)[nH]3)cc2)cc1`, in the assay with Escherichia coli [1], the Activity came out at 92%. Moreover, the MIC with Escherichia coli [2] and with Staphylococcus aureus was over 128 µg/mL in each case.

Turning to `O=c1[nH]c(-c2cccc(Br)c2)nc2ccccc12`, the Activity in the assay with Escherichia coli [1] is 65%. Further, the minimum inhibitory concentration (MIC) against Escherichia coli [2] and in the assay with Staphylococcus aureus was over 128 µg/mL throughout.

Turning to `O=c1[nH]c(-c2ccc(-c3cc[nH]n3)o2)nc2ccccc12`, the Activity in the assay on Escherichia coli [1] amounted to 100%. Besides, the MIC against Escherichia coli [2] and against Staphylococcus aureus was over 128 µg/mL each time.

In the case of `O=c1c2ccccc2nc(-c2ccco2)n1CCO`, the Activity with Escherichia coli [1] turned out to be 91%. Besides, the MIC with Escherichia coli [2] and against Staphylococcus aureus was over 128 µg/mL in each case.

As for `COC(=O)Cn1c(-c2ccco2)nc2ccccc2c1=O`, the Activity in the assay on Escherichia coli [1] is 66%. Moreover, the MIC against Escherichia coli [2] and against Staphylococcus aureus was over 128 µg/mL throughout.
